This note sets out measurements from PMC9513234, “Synthesis and Biological Evaluation of Termini-Modified and Cyclic Variants of the Connexin43 Inhibitor Peptide5” (Frontiers in Chemistry, 2022).

Data set [1] deals with gap junctions in hCMVEC cells. The conditions noted are these: 100 µM; for LY dye spread (number of LY-positive cells) as percentage of untreated control: mean ± SEM. The protocol: We next investigated the ability of peptide5 variants to inhibit gap junctional communication using a scrape loading assay. In this assay, the cells in culture are loaded with a dye (Lucifer Yellow dilithium salt (LY), M.W. 457.25 Da) of molecular size (<1 kDa) that is able to transit through the gap junctions and the degree of dye spread is then measured by counting the number of cells that contain LY (Supplementary Material, Method 4) ^1. Consistent with our previous study, peptide5 (1) and Cbx reduced the degree of dye spread following incubation with LY (56.16 ± 2.1%; p < 0.0001 and 16.2 ± 1.1%; p < 0.0001, respectively) compared to the untreated controls (Figure 12).
(§1) Human cerebral microvascular endothelial cells (hCMVEC) were purchased from Applied Biological Materials (ABM) Inc, Canada (cat # T0259) (O'Carroll et al., 2015). Cells were cultured in 1 μg/cm^2 collagen I (Gibco) coated T75 flasks from Corning (NY, USA). The growth media was M199 media (Gibco), supplemented with 10% FBS, 1 μg/mL hydrocortisone (Sigma), 3 μg/mL human FGF (Peprotech), 10 μg/mL human EGF (Peprotech), 10 μg/mL heparin (Sigma), 2 mM Glutamax (Gibco), and 80 μM butyryl cAMP (Sigma).
For experiments hCMVECs cells were plated M199 media at a density of 4 x 10^5 cells per well in a collagen coated (1 µg/cm^2) 12-well plate the day prior to the experiment to ensure a confluent monolayer of hCMVECs. On the day of the experiment cells were pre-incubated in carbenoxolone, (100 µM) Peptide5 (5–100 µM) or modified analogues (100 µM) or M199 as a negative control. Cells were washed three times with phosphate buffered saline (PBS) without Ca^2+ or Mg^2+ and incubated in 0.05% Lucifer Yellow (LY) (Sigma), a fluorescent dye that is transferred through coupled gap junction channels (el-Fouly, Trosko, & Chang, 1987), and scrape-wounded with a size 10 carbon steel surgical blade (Swann-Morton, England). Following a 5 minute incubation at 37 °C in 95% O2 and 5% CO2 without light, the 0.05% LY solution was removed. Cells were rinsed four times with HBSS containing Ca^2+ ^+, and then fixed in 4% paraformaldehyde (PFA) in PBS at pH 7.4 for 10 minutes at room temperature. Cells were then washed 3 times in PBS to remove PFA before fluorescent imaging. Fluorescent images were visualized using a Nikon TE2000E inverted fluorescent microscope (10x magnification, 0.3 numerical aperture), and captured using a Digital Sight CCD camera and Eclipse Net software (Nikon). Three images within each well from three independent experiments were taken for analysis, and the total number of cells showing dye uptake from those that had been loaded were counted manually by masked observers. Each peptide was tested in at least an n of 2 separate experiments.

A further data set concerns the target T1, Cx43 hemichannel (Homo sapiens, UniProt P17302).
T1 construct: ischemic injury–induced ATP release from hCMVEC cells in vitro; host or cells: hCMVEC (human cerebral microvascular endothelial cells)
The data set is described as follows: HAIR ischemic injury-induced ATP release (hemichannel) assay, bioluminescence. The data set is classed as cell-based. The conditions noted are these: hCMVEC cells, 2 h in HAIR solution, 100 µM; for ATP release compared to HAIR control (result in words) / ATP release compared to peptide5 (result in words): one-way ANOVA, Dunnett; for ATP release over untreated HAIR controls: mean ± SEM. The protocol: To test the effect of the peptide modifications on peptide5 (1) activity against hemichannels, a model of ischemic insult on a cell culture model of the brain microvasculature was used to induce Cx43 hemichannel opening and ATP release (Supplementary Material, Method 4). The cells were incubated in hypoxic-acidic ion-shifted ringers (HAIR) solution to generate disrupted pH and ion balance leading to ATP leak from the cells, which can be sampled and quantified luminometrically using a commercially available firefly luciferase assay (Molecular Probes).
as §1
For experiments hCMVECs were plated in M199 media at a density of 2.5 x 10^4 cells per well in a collagen-coated (1 µg/cm^2) 12-well plate the day prior to the experiment. Hypoxic, acidic, ion-shifted Ringer (HAIR) injury solution that mimics ionic concentrations and acid-base shifts of the interstitial space in hypoxic-ischemic brains (Bondarenko & Chesler, 2001) was used to trigger hemichannel opening as described previously (Kim et al., 2017). HAIR solution (38 mM NaCl, 13 mM NaHCO3, 3 mM Na-gluconate, 65 mM K-gluconate, 38 mM NMDG-Cl, 1 mM NaH2PO4, and 1.5 mM MgCl2) was bubbled in 95% N2, 5% CO2 gas (20 L/min) for 5 minutes and pH adjusted to 6.6 before use. To induce ischemic, cells were incubated for 2 hours in 500 µL HAIR solution +/- carbenoxolone (100 µM), Peptide5 or modified analogues (100 µM). For the negative control, hCMVEC cells were incubated for 2 hours in 500 µL standard Ringer solution 124 mM NaCl, 3 mM KCl, 26 mM NaHCO3, […], 1 mM NaH2PO4, 1.3 mM CaCl2, 1.5 MgCl2, and 10 mM glucose) adjusted to pH 7.4 before use. All incubations were carried out at 37 °C in 95% O2 and 5% CO2. At the end of each experiment, samples were removed and immediately placed on ice. The concentration of ATP in the samples was determined using a luciferin/luciferase bioluminescence reaction (ATP Determination Kit, Molecular Probes) and detected using a luminescence plate reader (FLUOStar OPTIMA FL, BMG Labtech). Standard curves were generated for each experiment from an ATP standard (0 to 500 nM) and used to convert bioluminescence units to ATP concentration. […] Only readings in the plateau phase of the reaction were included in averaging for the well value. Each peptide was tested in at least an n of 2 separate experiments.

Data set [2] can be described thus: Human serum stability assay (RP-HPLC). Particulars: for stability in human serum (result in words): 25% aq. human serum, 37°C, 48 h. Here is the method:
We then evaluated the N-methylated variants 7 and 8, D amino acid variants 9 and 10, and the two carbo cyclic peptides 39 and 42. Each peptide was incubated with 25% aq. human serum at 37°C, and 6 aliquots were extracted within 48 h. The stability of each peptide upon exposure to human serum was then analyzed via analytical RP HPLC, and the amount of peptide still present at each time point was recorded relative to t = 0 h.
Whole blood was collected from a healthy volunteer and stored in a covered test tube and was allowed to clot by leaving it undisturbed at r.t. for ca. 1 h. The clot was removed by centrifugation at 1,000-2,000 x g for 10 min and the resulting supernatant was designated as the serum. The serum was collected and stored in 0.5 mL aliquots, whereby the samples were stored at - 20 °C.
200 µM concentration of peptide was incubated in 25% aq. human serum (1.7 mL) and left to shake at 37 °C. Aliquots of human serum-peptide mixture (270 µL) were taken at given times (0 h, 1 h, 4 h, 8 h, 24 h, and 48 h) and threefold excess of acetonitrile (810 µL) was added to the aliquot and left for 1 h at 0 °C. The samples underwent centrifugation (14,500 rpm) for 30 min at r.t. and the supernatant was subsequently collected. Upon evaporation of the solvents, the resulting dry, pale-yellow residue was dissolved in water containing 0.1 % TFA.
The dissolved solution was analysed via analytical RP HPLC and the quantity of the peptide was expressed as a percentage relative to the peptide peak area obtained at time zero (i.e. 100% peptide amount at t = 0 h). A scatterplot graph representing percentage of peptide versus time was generated.

“Also recorded” adds a separate entry of the source. Where a SMILES comes first, the peptide text is derived from it. Bridges are numbered along the chain shown (N, C = ends). [ ]: non-standard residue; d: D form. The star is where a group is joined. AllylGly = C=CC[C@H](N)C(=O)O; Ethoxycarbonyl = CCOC(=O)*; Butyryl = CCCC(=O)*; Bz = O=C(c1ccccc1)*; N3 = azide

T1 sequence (P17302 whole entry): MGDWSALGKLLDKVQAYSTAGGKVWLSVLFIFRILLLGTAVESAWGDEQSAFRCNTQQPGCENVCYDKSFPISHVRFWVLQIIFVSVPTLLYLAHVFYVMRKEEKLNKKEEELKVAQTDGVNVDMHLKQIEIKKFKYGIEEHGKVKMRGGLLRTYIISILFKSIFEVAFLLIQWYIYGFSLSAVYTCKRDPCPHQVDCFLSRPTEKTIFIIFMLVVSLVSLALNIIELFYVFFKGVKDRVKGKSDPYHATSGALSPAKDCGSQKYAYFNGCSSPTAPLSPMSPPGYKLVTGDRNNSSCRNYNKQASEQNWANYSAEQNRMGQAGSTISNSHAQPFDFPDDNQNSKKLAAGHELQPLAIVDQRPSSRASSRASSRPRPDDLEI

For `CC1(C)[C@@H](OC(=O)CCC(=O)O)CC[C@]2(C)[C@H]3C(=O)C=C4[C@@H]5C[C@@](C)(C(=O)O)CC[C@]5(C)CC[C@@]4(C)[C@]3(C)CC[C@@H]12` [Cbx, carbenoxolone, reference compound], the “LY dye spread (number of LY-positive cells) as percentage of untreated control” value in data set [1] turned out to be 16.2 ± 1.1%.

As for `CC(C)C[C@H](NC(=O)[C@H](Cc1ccccc1)NC(=O)[C@H](CS)NC(=O)[C@H](CC(=O)O)NC(=O)[C@@H](N)C(C)C)C(=O)N[C@@H](CO)C(=O)N[C@@H](CCCNC(=N)N)C(=O)N1CCC[C@H]1C(=O)N[C@H](C(=O)N[C@@H](CCC(=O)O)C(=O)N[C@H](CCCCN)C(=O)N[C@H](C(=O)O)[C@@H](C)O)[C@@H](C)O` [Peptide 9, H2N-VDCFLSRPTEkT-CO2H] (H-VDCFLSRPTE[dK]T-OH), in data set [1], the “LY dye spread compared to peptide5 (result in words)” value (from here on “LY dye spread compared to peptide5”) was “not statistically different from peptide5” and the “LY dye spread (number of LY-positive cells) as percentage of untreated control” value was determined as 74.7 ± 10.4%.

Regarding `CC(C)C[C@H](NC(=O)[C@H](Cc1ccccc1)NC(=O)[C@H](CS)NC(=O)[C@H](CC(=O)O)NC(=O)[C@@H](N)C(C)C)C(=O)N[C@@H](CO)C(=O)N[C@H](CCCNC(=N)N)C(=O)N1CCC[C@H]1C(=O)N[C@H](C(=O)N[C@@H](CCC(=O)O)C(=O)N[C@@H](CCCCN)C(=O)N[C@H](C(=O)O)[C@@H](C)O)[C@@H](C)O` [Peptide 10, H2N-VDCFLSrPTEKT-CO2H] (H-VDCFLS[dR]PTEKT-OH), in data set [1], the “LY dye spread / gap junction inhibition compared to control (result in words)” value is given as “did not reduce the degree of dye spread compared to control” and the “LY dye spread compared to peptide5” value is given as “significantly increased compared to peptide5 (1)”. On Cx43 hemichannel, the “ATP release compared to HAIR control (result in words)” value (“ATP release compared to HAIR control” below) is on record as “complete lack of activity” and the “ATP release compared to peptide5 (result in words)” value (“ATP release compared to peptide5” for short) is “significantly increased compared to peptide5 (1)”.

Turning to `CC(C)C[C@@H]1NC(=O)[C@H](Cc2ccccc2)NC(=O)[C@H](CS)NC(=O)[C@H](CC(=O)O)NC(=O)[C@H](C(C)C)NC(=O)[C@@H](N)CC=CC[C@@H](C(=O)O)NC(=O)[C@H]([C@@H](C)O)NC(=O)[C@H](CCCCN)NC(=O)[C@H](CCC(=O)O)NC(=O)[C@H]([C@@H](C)O)NC(=O)[C@@H]2CCCN2C(=O)[C@H](CCCNC(=N)N)NC(=O)[C@H](CO)NC1=O` [Peptide 39] (H-[AllylGly]VDCFLSRPTEKT[AllylGly]-OH; staple 1-14), in data set [2], the “stability in human serum (result in words)” value is “good stability over 48 h; also recorded: the most stable in human serum”.

Consider `CC(C)C[C@@H]1NC(=O)[C@H](Cc2ccccc2)NC(=O)[C@H](CS)NC(=O)[C@H](CC(=O)O)NC(=O)[C@H](C(C)C)NC(=O)[C@@H](N)CC=CC[C@@H](C(=O)N[C@H](C(=O)O)[C@@H](C)O)NC(=O)[C@H](CCC(=O)O)NC(=O)[C@H]([C@@H](C)O)NC(=O)[C@@H]2CCCN2C(=O)[C@H](CCCNC(=N)N)NC(=O)[C@H](CO)NC1=O` [Peptide 42] (H-[AllylGly]VDCFLSRPTE[AllylGly]T-OH; staple 1-12), for which the “stability in human serum (result in words)” value in data set [2] was “extremely resistant to enzymatic degradation; also recorded: the most stable in human serum”. The same compound came in with a share remaining at 48 h, 200 µM in data set [2] (human, serum) of approximately 90%.

For the compound “(CH 3 ) 2 CH 2 CH 2 OCO-NH-VDCFLSRPTEKT-CO2H (isopentyloxycarbonyl-VDCFLSRPTEKT-OH) [Peptide 3]”, in the data set with Cx43 hemichannel, the “ATP release over untreated HAIR controls” value turned out to be 52.6 ± 1.3% and the “ATP release compared to peptide5” value is reported as “equaling the efficacy of peptide5 (1)”.

For the compound “CH 3 CH 2 CH 2 CO-NH-VDCFLSRPTEKT-CO2H (Butyryl-VDCFLSRPTEKT-OH) [Peptide 5]”, in the data set with Cx43 hemichannel, the “ATP release over untreated HAIR controls” value is reported as 57.3 ± 12.4% and the “ATP release compared to peptide5” value is given as “equaling the efficacy of peptide5 (1)”.

Take “CH 3 CH 2 CH 2 CO-NH-VDCFLSRPTEKT-CONH 2 (Butyryl-VDCFLSRPTEKT-NH2) [Peptide 14]”: the “LY dye spread compared to peptide5” value in data set [1] was “significantly increased dye spread relative to peptide5 (1)”.

With “CH 3 CH 2 OCO-NH-VDCFLSRPTEKT-CO2H (Ethoxycarbonyl-VDCFLSRPTEKT-OH) [Peptide 2]”, in data set [1], the “LY dye spread compared to peptide5” value is “significantly increased dye spread relative to peptide5 (1)”. The “ATP release compared to HAIR control” value in the data set with Cx43 hemichannel is reported as “did not reduce ATP release compared to HAIR control”.

For the compound “CH 3 CH 2 OCO-NH-VDCFLSRPTEKT-CONH 2 (Ethoxycarbonyl-VDCFLSRPTEKT-NH2) [Peptide 11]”, the “LY dye spread compared to peptide5” value in data set [1] was “significantly increased dye spread relative to peptide5 (1)”.

For the compound “H2N-VDCFLSRPTEKT-CH 2 OH (H-VDCFLSRPTEKT-CH2OH) [Peptide 15]”, the “LY dye spread compared to peptide5” value in data set [1] is given as “significantly increased dye spread relative to peptide5 (1)”.

For “N 3 -VDCFLSRPTEKT-CO2H (N3-VDCFLSRPTEKT-OH) [Peptide 6]”, the “LY dye spread compared to peptide5” value in data set [1] is listed as “significantly increased dye spread relative to peptide5 (1)”. In the data set with Cx43 hemichannel, the “ATP release compared to HAIR control” value is reported as “complete lack of activity; also recorded: did not reduce ATP release compared to HAIR control” and the “ATP release compared to peptide5” value is on record as “significantly increased compared to peptide5 (1)”.

Take “PhCO-NH-VDCFLSRPTEKT-CO2H (Bz-VDCFLSRPTEKT-OH) [Peptide 4]”: the “LY dye spread compared to peptide5” value in data set [1] is given as “significantly increased dye spread relative to peptide5 (1)”. The “ATP release compared to HAIR control” value in the data set with Cx43 hemichannel is reported as “did not reduce ATP release compared to HAIR control”.

For orientation: fraction remaining means the share of the starting amount still present when the sample was taken.
